These results are taken from patent publication US10577399B2, “Modified lantibiotics and methods of making and using the modified lantibiotics” (priority 2016, dated 2020).

Test [1] deals with M. luteus ATCC 10240. The format is cell-based, Micrococcus luteus. To be noted: for M. luteus ATCC 10240 MIC / M. luteus ATCC 10240 MLC: Table 11. The method, then:
(§1) Minimum Inhibitory Concentrations (MICs) were determined according to previously published protocol^31. A stock solution of the antibiotics tested was first suspended in 50% acetonitrile (ACN) at a concentration 640 μg/mL. This stock was subsequently diluted 2-fold until a final concentration 0.156 μg/mL was reached. Subsequently, 10 μl of each dilution was placed into a well on a 96 well microtiter plate. M. luteus ATCC 10240, S. pneumoniae, and B. subtilis PY79 were grown overnight in THyex at 37° C. Cultures were diluted in the morning to 0.1 OD600 and allowed to grow to 0.6 OD600. This culture was diluted a 100-fold in fresh THyex media and then 400 μl of this culture was added to 10 mL of fresh THyex. The suspension contains approximately 10^5 colony forming units (CFUs). The bacterial suspension (190 μL) was added to each well containing 10 μL of antibiotic suspension or solvent blank. […] Following the 15 minute pretreatment, 190 μL was added to each well as described above. The MIC is described as the […] concentration of antibiotic that prevented visible growth after 24 hours.
FIG. 11 illustrates the bioactivity of various core peptide mutants of mutacin 1130. The activity of the core mutant peptides is expressed as a ratio of the area of the zone of inhibition of each mutant strain to the area of the zone of inhibition of the wild-type strain against indicator strain of Micrococcus luteus. […] The deferred antagonism assay is an overlay assay of the indicator strain onto plates containing heat killed colonies of the mutacin producer strain after growing overnight. Core peptide mutants having inhibitory activity were isolated and the purified products were further evaluated by a standard minimum inhibitory concentration (MIC) assay.

The test system of test [2] is M. luteus ATCC 10240. As to the kind of experiment: Deferred antagonism (overlay) assay, zone of inhibition. To be noted: relative to wild-type strain. The format is cell-based, Micrococcus luteus. The procedure:
The deferred antagonism assay was performed as previously described^39. S. mutans strains were grown overnight in THyex broth at 37° C. The cultures were diluted to 0.1 OD OD600 and grown to mid-logarithmic phase before diluting to 0.05 OD600. Then, 2 μl of the cultures were spotted on THyex plates in duplicates of triplicates. The wild-type S. mutans JH1140 and S. mutans ΔmutA were used as positive and negative controls for activity, respectively. The plates were incubated for 18 hours in a candle jar at 37° C. After incubation, the strains were heat killed at 65° C. for 90 minutes. Fresh M. luteus grown overnight at 37° C. on THyex plates were used to inoculate pre-warmed THyex broth. The culture was grown to 0.6 to 0.8 OD before diluting to 0.2 OD600. The culture was further diluted 25-fold in melted (42° C.) THyex top agar. Approximately 5 mL of the top agar solution was spread on the heat killed bioassay plates and allowed to cool for 10 minutes. The plates were then placed in the incubator (at 37° C.) for 18 hours.
Streptococcus mutans ATCC 55676 (wild-type) and the mutants that were at an OD600 of 0.2 were spotted in triplicates on a pre-warmed THyex agar plate (150×15 mm) and allowed to dry. This assay was performed in this manner to ensure that each sample had the same colony size for comparing zones of inhibition. The plate was incubated for 24 hours then placed in an oven at 50° C. for thirty minutes to kill the bacteria before the indicator strain was overlaid. Heat killing the bacteria prevents any further antimicrobial compound production so that results seen are from single day incubation. Zone diameter was measured in millimeters across the plate and compared to wild-type (i.e. zone I for ATCC compared to zone I of Trp4Ala, etc.).

In the next test the test system is S. pneumoniae ATCC 27336. In kind it is cell-based, Streptococcus pneumoniae. To be noted: Table 11. The procedure: as §1, with “hours. […]” for “hours.”
In the next test the test system is S. aureus ATCC 25923. Nature of the test: MIC/MLC assay against S. aureus. To be noted: Table 11. The format is cell-based, Staphylococcus aureus.
A further test has as its system C. accolens ATCC 49725. Nature of the test: MIC/MLC assay against C. accolens ATCC 49725. In kind it is cell-based. To be noted: THyex broth with 1% Tween 80.
The next test has as its system C. accolens KPL 1818. As to the kind of experiment: MIC/MLC assay against C. accolens KPL 1818. The format is cell-based. To be noted: THyex broth with 1% Tween 80.

≈ marks a conversion by molar mass, not a printed value. Like-named read-outs stand apart in the source and are kept apart here. No end group written: not given here.

As for `C=C1NC(=O)[C@H](Cc2c[nH]c3ccccc23)NC(=O)[C@H](NC(=O)[C@H](CCCCN)NC(=O)[C@@H](N)Cc2ccccc2)CSC[C@@H](C(=O)N[C@H]2C(=O)N3CCC[C@H]3C(=O)NCC(=O)N[C@H](C(=O)N[C@@H](C)C(=O)N[C@@H](CCCNC(=N)N)C(=O)N/C(=C\C)C(=O)NCC(=O)N[C@@H]3CSC[C@@H]4NC(=O)[C@H](Cc5ccc(O)cc5)NC(=O)[C@@H](CS/C=C\NC4=O)NC(=O)[C@H](CC(N)=O)NC(=O)[C@H](Cc4ccccc4)NC3=O)CS[C@H]2C)NC(=O)[C@H](C)NC1=O` [Mutant Leu6Ala], in the test with M. luteus ATCC 10240 [1] (Table 10, indicator strain Micrococcus luteus), the “MIC” value was determined as 0.0625 µg/mL (≈ 0.0281 µM). Further, the “activity relative to wild-type mutacin 1140 (M. luteus)” value in the test on M. luteus ATCC 10240 [1] (purified variants) is recorded as “two-fold more active”. For the same compound, in the test with M. luteus ATCC 10240 [2], the “zone of inhibition / inhibitory activity in deferred antagonism assay” value (“zone of inhibition / inhibitory activity” for short) is on record as “larger zone of inhibition”.
With `C=C1NC(=O)[C@H](Cc2c[nH]c3ccccc23)NC(=O)[C@H](NC(=O)[C@H](C)NC(=O)[C@@H](N)Cc2ccccc2)CSC[C@@H](C(=O)N[C@H]2C(=O)N3CCC[C@H]3C(=O)NCC(=O)N[C@H](C(=O)N[C@@H](C)C(=O)N[C@@H](CCCNC(=N)N)C(=O)N/C(=C\C)C(=O)NCC(=O)N[C@@H]3CSC[C@@H]4NC(=O)[C@H](Cc5ccc(O)cc5)NC(=O)[C@@H](CS/C=C\NC4=O)NC(=O)[C@H](CC(N)=O)NC(=O)[C@H](Cc4ccccc4)NC3=O)CS[C@H]2C)NC(=O)[C@H](CC(C)C)NC1=O` [Mutant Lys2Ala], in the test with M. luteus ATCC 10240 [1] (ATCC 10240), the minimal inhibitory concentration (MIC) was 0.125 µg/mL (≈ 0.0566 µM). Further, the “zone of inhibition / inhibitory activity” value in the test on M. luteus ATCC 10240 [2] is recorded as “larger zone of inhibition”.
With “C-terminal fluorescein conjugate of mutacin 1140: mu1140-COOH coupled to 5-(aminoacetamido)fluorescein at the C-terminus (FKSWSLCTPGCARTGSFNSYCC-{5‑(aminoacetamido)fluorescein}; ends and bridges not checked; UniProt O68586 42-63, looked up)”, in the test on M. luteus ATCC 10240 [2], the “zone of inhibition / inhibitory activity” value is listed as “has the inhibitory activity”.
With “G15A*: core peptide mutant of mutacin 1140, Glycine 15 replaced by Alanine (FKSWSLCTPGCARTASFNSYCC; ends and bridges not checked; cysteine pairing not given here; UniProt O68586 42-63, looked up, variant G15A)”, in the test on M. luteus ATCC 10240 [1], the “M. luteus ATCC 10240 MIC” value was 0.125 micrograms per milliliter and the “M. luteus ATCC 10240 MLC” value was determined as 0.125 micrograms per milliliter. In the test with S. pneumoniae ATCC 27336, the “S. pneumonia ATCC 27336 MIC” value amounted to 0.5 micrograms per milliliter and the “S. pneumonia ATCC 27336 MLC” value worked out at 0.5 micrograms per milliliter. In addition, in the test on S. aureus ATCC 25923, the “S. aureus ATCC 25923 MIC” value is on record as 16 micrograms per milliliter and the “S. aureus ATCC 25923 MLC” value was found to be 16 micrograms per milliliter. Besides, in the test on C. accolens ATCC 49725, the “C. accolens ATCC 49725 MIC” value came to 1 micrograms per milliliter and the “C. accolens ATCC 49725 MLC” value was determined as 1 micrograms per milliliter. Moreover, in the test on C. accolens KPL 1818, the “C. accolens KPL 1818 MIC” value came out at 1 micrograms per milliliter and the “C. accolens KPL 1818 MLC” value came out at 2 micrograms per milliliter. For the same compound, in the test with M. luteus ATCC 10240 [2], the “zone of inhibition / inhibitory activity” value is listed as “no change in activity”.
In the case of “S5G:R13A:T14A: core peptide mutant of mutacin 1140, positions 5, 13 and 14 replaced by Glycine, Alanine and Alanine (FKSWGLCTPGCAAAGSFNSYCC; ends and bridges not checked; cysteine pairing not given here; UniProt O68586 42-63, looked up, variant S5G R13A T14A)”, in the test with M. luteus ATCC 10240 [1], the “M. luteus ATCC 10240 MIC” value was found to be 2 micrograms per milliliter and the “M. luteus ATCC 10240 MLC” value is given as 16 micrograms per milliliter. In the test on S. pneumoniae ATCC 27336, the “S. pneumonia ATCC 27336 MIC” value was found to be 8 micrograms per milliliter and the “S. pneumonia ATCC 27336 MLC” value is recorded as above 16 micrograms per milliliter. Moreover, in the test with S. aureus ATCC 25923, the “S. aureus ATCC 25923 MIC” value is given as above 32 micrograms per milliliter and the “S. aureus ATCC 25923 MLC” value is above 32 micrograms per milliliter. In the test on C. accolens ATCC 49725, the “C. accolens ATCC 49725 MIC” value is given as above 4 micrograms per milliliter and the “C. accolens ATCC 49725 MLC” value is above 4 micrograms per milliliter. Besides, in the test on C. accolens KPL 1818, the “C. accolens KPL 1818 MIC” value was above 4 micrograms per milliliter and the “C. accolens KPL 1818 MLC” value is reported as above 4 micrograms per milliliter.
Regarding “S5G:T14G: core peptide mutant of mutacin 1140, positions 5, 14 replaced by Glycine and Glycine (FKSWGLCTPGCARGGSFNSYCC; ends and bridges not checked; cysteine pairing not given here; UniProt O68586 42-63, looked up, variant S5G T14G)”, in the test with M. luteus ATCC 10240 [1], the “M. luteus ATCC 10240 MIC” value is 0.5 micrograms per milliliter and the “M. luteus ATCC 10240 MLC” value was 0.5 micrograms per milliliter. For the same compound, in the test with S. pneumoniae ATCC 27336, the “S. pneumonia ATCC 27336 MIC” value stood at 2 micrograms per milliliter and the “S. pneumonia ATCC 27336 MLC” value was determined as 2 micrograms per milliliter. In addition, in the test on S. aureus ATCC 25923, the “S. aureus ATCC 25923 MIC” value is 8 micrograms per milliliter and the “S. aureus ATCC 25923 MLC” value stood at 16 micrograms per milliliter. For the same compound, in the test with C. accolens ATCC 49725, the “C. accolens ATCC 49725 MIC” value was 1 micrograms per milliliter and the “C. accolens ATCC 49725 MLC” value is given as 1 micrograms per milliliter. Further, in the test with C. accolens KPL 1818, the “C. accolens KPL 1818 MIC” value stood at 0.5 micrograms per milliliter and the “C. accolens KPL 1818 MLC” value was 1 micrograms per milliliter.
Regarding “S5T: core peptide mutant of mutacin 1140, Serine 5 replaced by Threonine (FKSWTLCTPGCARTGSFNSYCC; UniProt O68586 42-63, looked up, variant S5T) [Mutant S5T]”, in the test with M. luteus ATCC 10240 [1], the “M. luteus ATCC 10240 MIC” value stood at 4 micrograms per milliliter and the “M. luteus ATCC 10240 MLC” value is given as 4 micrograms per milliliter. In the test on S. pneumoniae ATCC 27336, the “S. pneumonia ATCC 27336 MIC” value amounted to 2 micrograms per milliliter and the “S. pneumonia ATCC 27336 MLC” value is 2 micrograms per milliliter. Besides, in the test with S. aureus ATCC 25923, the “S. aureus ATCC 25923 MIC” value is above 32 micrograms per milliliter and the “S. aureus ATCC 25923 MLC” value is above 32 micrograms per milliliter. Moreover, in the test with C. accolens ATCC 49725, the “C. accolens ATCC 49725 MIC” value was above 4 micrograms per milliliter and the “C. accolens ATCC 49725 MLC” value was above 4 micrograms per milliliter. Also, in the test with C. accolens KPL 1818, the “C. accolens KPL 1818 MIC” value is above 4 micrograms per milliliter and the “C. accolens KPL 1818 MLC” value is above 4 micrograms per milliliter.
